Source: patent US10928381B2, “In vitro methods of monitoring autophagy in a human cell using a photoconvertable fluorescent protein linked biomarker” (The Regents of the University of Michigan, priority 2018, dated 2021)

Tested on: Tandem reporter (RFP-GFP-LC3) HeLa cells
Test: Tandem reporter (RFP-GFP-LC3) assay, % of RFP puncta that are GFP positive
Type: cell-based
Details: imaged after 12 hours
Description: FIG. 13A-E. Validation of novel autophagy inhibitors with an independent measure of autophagic flux. (FIG. 13A) Tandem reporter (RFP-GFP-LC3) HeLa cells treated with the indicated compounds and imaged after 12 hours in RFP (middle panels) GFP (bottom panels). […] Concentrations used correspond to the lowest dose resulting in the maximum degree of colocalization between GFP and RFP puncta as calculated in (B). These are: 3 nM Bafilomycin, 1 uM Quinacrine, 50 uM 245536, and 100 uM of 254522, 45808, 234794, and 237373. (Scale bar: 50 μm) (FIG. 13B) The percentage of RFP positive puncta that are also GFP positive in tandem reporter HeLa cells was analyzed using Cell Profiler. First GFP (1a) and RFP (1b) images of the same field of cells are uploaded into Cell Profiler. Using the GFP images, nuclei are identified (2a-green outlines) and a nuclear mask (2b) is generated. […] Cellular boundries are identified (3a-purple outlines) and a cellular mask is created. […] Only puncta within this mask will be evaluated in subsequent steps. […] (FIG. 13D) Tandem reporter HeLa cells were imaged once prior to drug treatment and then treated with the lowest dose that produced the maximum response as calculated in (FIG. 13C) and imaged immediately after. […] Each point is calculated by taking the mean % of (GFP+/RFP+ puncta)/(RFP+) from 8 technical replicates. […]

CO/C1=C\C(C)=C\[C@@H](C)[C@@H](O)[C@@H](C)C/C(C)=C/C=C/[C@H](OC)[C@@H]([C@@H](C)[C@@H](O)[C@H](C)[C@@]2(O)C[C@@H](O)[C@H](C)[C@@H](C(C)C)O2)OC1=O [Bafilomycin-A1, bafilomycin-A1]
Lowest dose resulting in the maximum degree of colocalization between GFP and RFP puncta: 3 nM
